Measured values as given in patent publication US20030232102A1, “Total glycosides of paeony, method to prepare the same and uses thereof” (priority 2001, published 2003).

System: patients with rheumatoid arthritis
Experiment: Phase II clinical study in rheumatoid arthritis: effectiveness (symptoms, physical examination, comprehensive evaluation)
Assay type: in vivo, human
Set-up: ESR Reduced to norm., % of cases / CRP Reduced to Norm., % of cases / RF Reduced to norm., % of cases: concentration or dose not given beside the values
Details: for AGS 50% increased, % of cases / AGS 50% increased, cases / CRP 50% reduced, % of cases / CRP 50% reduced, cases / CRP Reduced to Norm., % of cases / CRP Reduced to Norm., cases / ESR 50% reduced, % of cases / ESR 50% reduced, cases / ESR Reduced to norm., % of cases / ESR Reduced to norm., cases / ITJ 50% reduced, % of cases / ITJ 50% reduced, cases / ITJ Disappeared, % of cases / ITJ Disappeared, cases / MR 50% reduced, % of cases / MR 50% reduced, cases / MR Disappeared, % of cases / MR Disappeared, cases / NSJ 50% reduced, % of cases / NSJ 50% reduced, cases / NSJ Disappeared, % of cases / NSJ Disappeared, cases / RF 2 dilutions lower, % of cases / RF 2 dilutions lower, cases / RF Reduced to norm., cases: double blinded
Experimental: It was a multiple-centered, randomized, parallel, positive controlled Phrase II clinical study.
All clinical studies except the above mentioned 120 cases were conducted in a single-blind condition.
1) Age 18˜65, male or female who agreed to the investigational treatment for 12 weeks to 6 months. History of rheumatoid arthritis was within 3 years.
2) Documented Rheumatoid Arthritis based on a diagnostic criteria of 1987 Revised ARA Criteria for the Classification of Rheumatoid Arthritis
3) Diagnosis of a typical active stage of RA: A patient is said to be on an active stage of RA if he or she has satisfied at least 4 of the following 5 items.
2) Patient who quitted the treatment for the ineffectiveness 7 days after the start of administration was included in the efficacy analysis. Patient who quitted the treatment for the side effects was not included in the efficacy analysis but the safety analyses.
1) The placebo run-in period: Seven days before administration, the selected patients stopped using NSAIDs and took a placebo instead.
4) For the double-blinded study, patients in both groups would be given capsules and tablets in same shapes, odors and amount. Placebo of capsule or tablet were included. Neither doctors nor patients can tell the group of treatment from the other.
5) No analgesics, anti-inflammation drugs, immune regulatory agents or muscle relaxants were allowed during the period of study. Acetaminophen could be used when necessary. If a physical therapy was started before enrollment, it was allowed to be continued, yet, it should be taken all the way during the period of clinical study.
1) Pain at rest: patients were asked to scale the degree of pain with a ruler [drawing 1]
2) Morning stiffness: Patients were requested to make notes on duration of their morning joint stiffness, a time span from its appearance to recovery in minutes every morning. The doctors should evaluate their record sheets by questioning them. For example “Do you fell stiff in any of your joints? (today, these 2 days)” When get a “yes” in answer, then “when did you get up today?” and “when does the stiffness be gone?”
3) Swelling of joints: Take count of the index of joint swelling by summing up the degree number of each joint.
0=normal; 1=swelling soft tissues (synovium) without hydrarthrus; 2=swelling soft tissues (synovium) with hydrarthrus.
4) Tenderness of joints: Take count of the index of joint tenderness by summing up the degree number of each joint:
5) Grip strength: Fold the arm belt of a sphygmomanometer twice and seal it in a small cloth bag suitable for a hand to hold. Aerates the belt in pressure of 20 mm Hg. Patients were asked to grip the bag with their not braced left and right hand, the grip strength is the average pressures in mm Hg for three times.
6) Time consumed for a 15 meters' walk (Seconds): Time started from a calm standing to the final of 15 meters. The average of three times.
7) General joint function (criteria of ARA):
8) Self-scoring and physician's grading on disease conditions: Both patients and doctors were required to submit their score sheet every time on follow-up survey. The scoring was made upon following criteria:
9) Patient's general condition: condition on the physical strength, sleep and appetite.
No effect: less than 30% improvement in symptoms and physical signs.
Improved: About 50% improvement in symptoms and physical signs (including general conditions in physical strength, sleep and appetite).

[1] = double blind, n = 60 per group, 4 weeks
[2] = double blind, n = 60 per group, 8 weeks
[3] = double blind, n = 60 per group, 12 weeks

## CN(Cc1cnc2nc(N)nc(N)c2n1)c1ccc(C(=O)N[C@@H](CCC(=O)O)C(=O)O)cc1 [MTX, Methotrexate]
4 weeks
  Effective rate: 47.2%
  Overall effectiveness: Improved, % of patients: 36.6%
  Overall effectiveness: Improved, number of patient: 52
  Overall effectiveness: No effect, % of patients: 52.8%
  Overall effectiveness: No effect, number of patient: 75
  Overall effectiveness: Obv. improved, % of patients: 10.6%
  Overall effectiveness: Obv. improved, number of patient: 15
  AGS 50% increased, % of cases: 5.0%
  AGS 50% increased, cases: 3
  CRP 50% reduced, % of cases: 16.7%
  CRP 50% reduced, cases: 10
  CRP Reduced to Norm., % of cases: 6.7%
  CRP Reduced to Norm., cases: 4
  ESR 50% reduced, % of cases: 30.0%
  ESR 50% reduced, cases: 18
  ESR Reduced to norm., % of cases: 26.7%
  ESR Reduced to norm., cases: 16
  ITJ 50% reduced, % of cases: 31.7%
  ITJ 50% reduced, cases: 19
  ITJ Disappeared, % of cases: 3.3%
  ITJ Disappeared, cases: 2
  MR 50% reduced, % of cases: 38.3%
  MR 50% reduced, cases: 23
  MR Disappeared, % of cases: 25.0%
  MR Disappeared, cases: 15
  NSJ 50% reduced, % of cases: 40.0%
  NSJ 50% reduced, cases: 24
  NSJ Disappeared, % of cases: 15.0%
  NSJ Disappeared, cases: 9
  RF 2 dilutions lower, % of cases: 13.3%
  RF 2 dilutions lower, cases: 8
  RF Reduced to norm., cases: 0
8 weeks
  Effective rate: 64.8%
  Overall effectiveness: Improved, % of patients: 31.7%
  Overall effectiveness: Improved, number of patient: 45
  Overall effectiveness: No effect, % of patients: 35.2%
  Overall effectiveness: No effect, number of patient: 50
  Overall effectiveness: Obv. improved, % of patients: 33.1%
  Overall effectiveness: Obv. improved, number of patient: 47
  AGS 50% increased, % of cases: 10.0%
  AGS 50% increased, cases: 6
  CRP 50% reduced, % of cases: 26.7%
  CRP 50% reduced, cases: 16
  CRP Reduced to Norm., % of cases: 25.0%
  CRP Reduced to Norm., cases: 15
  ESR 50% reduced, % of cases: 41.7%
  ESR 50% reduced, cases: 25
  ESR Reduced to norm., % of cases: 31.7%
  ESR Reduced to norm., cases: 19
  ITJ 50% reduced, % of cases: 43.3%
  ITJ 50% reduced, cases: 26
  ITJ Disappeared, % of cases: 3.3%
  ITJ Disappeared, cases: 2
  MR 50% reduced, % of cases: 53.3%
  MR 50% reduced, cases: 32
  MR Disappeared, % of cases: 21.7%
  MR Disappeared, cases: 13
  NSJ 50% reduced, % of cases: 55.0%
  NSJ 50% reduced, cases: 33
  NSJ Disappeared, % of cases: 20.0%
  NSJ Disappeared, cases: 12
  RF 2 dilutions lower, % of cases: 36.7%
  RF 2 dilutions lower, cases: 22
  RF Reduced to norm., cases: 0
12 weeks
  Effective rate: 77.5%
  Overall effectiveness: Improved, % of patients: 28.9%
  Overall effectiveness: Improved, number of patient: 41
  Overall effectiveness: No effect, % of patients: 22.5%
  Overall effectiveness: No effect, number of patient: 32
  Overall effectiveness: Obv. improved, % of patients: 48.6%
  Overall effectiveness: Obv. improved, number of patient: 69
  AGS 50% increased, % of cases: 15.0%
  AGS 50% increased, cases: 9
  CRP 50% reduced, % of cases: 33.3%
  CRP 50% reduced, cases: 20
  CRP Reduced to Norm., % of cases: 8.3%
  CRP Reduced to Norm., cases: 5
  ESR 50% reduced, % of cases: 51.7%
  ESR 50% reduced, cases: 31
  ESR Reduced to norm., % of cases: 33.3%
  ESR Reduced to norm., cases: 20
  ITJ 50% reduced, % of cases: 51.7%
  ITJ 50% reduced, cases: 31
  ITJ Disappeared, % of cases: 15.0%
  ITJ Disappeared, cases: 9
  MR 50% reduced, % of cases: 60.0%
  MR 50% reduced, cases: 36
  MR Disappeared, % of cases: 25.0%
24 weeks
  Effective rate: 81.7%
  Overall effectiveness: Improved, % of patients: 10.0%
  Overall effectiveness: Improved, number of patient: 6
  Overall effectiveness: No effect, % of patients: 18.3%
  Overall effectiveness: No effect, number of patient: 11
  Overall effectiveness: Obv. improved, % of patients: 71.7%
  Overall effectiveness: Obv. improved, number of patient: 43
Double blind, 4 weeks, mean
  Changes in RA perimeters: GS-L: 12.70
  Changes in RA perimeters: GS-R: 12.05
  Changes in RA perimeters: ISJ: 2.47
  Changes in RA perimeters: ITJ: 6.83
  Changes in RA perimeters: MR: 33.52
  Changes in RA perimeters: NSJ: 1.92
  Changes in RA perimeters: NTJ: 3.53
  Changes in RA perimeters: PR: 1.33
Double blind, 8 weeks, mean
  Changes in RA perimeters: GS-L: 17.55
  Changes in RA perimeters: GS-R: 16.68
  Changes in RA perimeters: ISJ: 4.03
  Changes in RA perimeters: ITJ: 9.53
  Changes in RA perimeters: MR: 41.03
  Changes in RA perimeters: NSJ: 2.97
  Changes in RA perimeters: NTJ: 5.52
  Changes in RA perimeters: PR: 1.94
Double blind, 12 weeks, mean
  Changes in RA perimeters: GS, L: 22.03
  Changes in RA perimeters: GS, R: 21.85
  Changes in RA perimeters: ITJ: 11.59
  Changes in RA perimeters: MR: 46.08
  Changes in RA perimeters: NSJ: 3.92
  Changes in RA perimeters: NTJ: 6.73
  Changes in RA perimeters: PR: 2.60
  Changes in RA perimeters: TSJ: 5.08
[1]
  Effective rate: 43.3%
  Improved, % of patients: (31.7%)
  Improved, number of patients: 19
  No effect, % of patients: (56.7%)
  No effect, number of patients: 34
  Obviously improved, % of patients: (11.7%)
  Obviously improved, number of patients: 7
[2]
  Effective rate: 66.7%
  Improved, % of patients: (31.7%)
  Improved, number of patients: 19
  No effect, % of patients: (33.3%)
  No effect, number of patients: 20
  Obviously improved, % of patients: (35.0%)
  Obviously improved, number of patients: 21
[3]
  Effective rate: 75.0%
  Improved, % of patients: (26.7%)
  Improved, number of patients: 16
  No effect, % of patients: (25.0%)
  No effect, number of patients: 15
  Obviously improved, % of patients: (48.33%)
  Obviously improved, number of patients: 29
